Test results from patent US20160122723A1, “ENGINEERED THREE-DIMENSIONAL SKIN TISSUES, ARRAYS THEREOF, AND METHODS OF MAKING THE SAME” (ORGANOVO, INC., priority 2014, published 2016).
Where two headings read alike, the source gives them in different places.

Tests used:
Type in all cases: cell-based, human
[1] = tested on: bioprinted full thickness skin tissue; experiment: Skin irritation test, viability by alamar blue assay, 15 minute exposure, 24 well plate format (Example 5)
Excerpt: (§1) Bio-ink was generated by a cellular mixture of 100% primary adult human dermal fibroblasts (HDFa) in 8% gelatin (Novogel® 2.0) in a concentration of 50 million cells per milliliter. The cell: gelatin ratio was altered to further reduce the cellular density of the dermal sheet to better mimic dermal tissue in native skin. Three-dimensional bio-ink constructs were printed by continuous deposition using the Novogen Bioprinter® platform in a 2 mm×2 mm×0.5 mm base sheet to create a dermal structure resembling a sheet. A smaller syringe needle was used to achieve greater resolution at the reduced size. Instead of printing one 0.5 mm sheet with a 500 μm diameter syringe needle, two layers of 0.25 mm sheets printed with a 250 μm diameter needle. One tissue construct was printed per transwell-in a 24 well plate. The transwell printing surface contained a polytetrafluoroethylene (PTFE)-membrane coated with equimolar mixture of types I and III collagen (bovine) with pores 3 μm in-size. Epidermal cell paste containing a mixture of 100% primary neonatal human epidermal keratinocytes (HEKn) was then printed on top of the dermal bio-ink. Cell paste was measured post print at 96.0% viable by trypan exclusion assay. Cell number in deposited epidermal layer was estimated at 11,000 cells by cell counting on a Cell-O-Meter. Immediately following the print, constructs were placed in 4° C. for 10 minutes. This is a key step to harden the Novogel®, which helps to maintain the printed shape and improve construct to construct uniformity. Cold media was then added to the outer well of the transwell in a volume of 1 ml. The media used for subsequent growth and maintenance of the skin tissue was a 50:50 ratio of HDFa:HEKn media. The initial volume added was sufficient to submerge the structure. […] IL-1α production (R&D Systems) was analyzed in a colorimetric assays per manufacturer's protocol. Media was analyzed for lactate dehydrogenase as a marker for cytotoxicity. IL-1α production was assessed as a complementary endpoint to classic cytotoxicity testing to improve predictability of irritants. […]

[2] = tested on: bioprinted full thickness skin tissue; experiment: Skin irritation test, LDH activity, 15 minute exposure, 24 well plate format (Example 5)
Excerpt: as §1, with “Epidermal cell paste containing a mixture of 100% primary neonatal human epidermal keratinocytes (HEKn) was then printed on top of the dermal bio-ink.” left out, “assay.” for “assay. Cell number in deposited epidermal layer was estimated at 11,000 cells by cell counting on a Cell-O-Meter. Immediately following the print, constructs were placed in 4° C. for 10 minutes. This is a key step to harden the Novogel®, which helps to maintain the printed shape and improve construct to construct uniformity. Cold media was then added to the outer well of the transwell in a volume of 1 ml. The media used for subsequent growth and maintenance of the skin tissue was a 50:50 ratio of HDFa:HEKn media. The initial volume added was sufficient to submerge the structure.”

[3] = tested on: bioprinted full thickness skin tissue; experiment: Skin irritation test, IL-1α production, 15 minute exposure, 24 well plate format (Example 5)
Excerpt: as §1

[4] = tested on: bioprinted full thickness skin tissue; experiment: Skin irritation test, macroscopic and histological analysis (H&E, CK5/IVL, CK10, collagen 3, PCNA, TUNEL) (Example 4); conditions: 1% for 1 hour
Excerpt: Bio-ink was generated by a cellular mixture of 100% primary adult human dermal fibroblasts (HDFa) in 8% gelatin (Novogel® 2.0) at a concentration of 100 million cells per milliliter. The cell: gelatin ratio was altered to reduce the cellular density of the dermal sheet to better mimic dermal tissue in native skin. Three-dimensional bio-ink constructs were printed by continuous deposition using the Novogen Bioprinter® platform in a 4 mm×4 mm×0.5 mm base to create a dermal structure resembling a sheet. One tissue construct was printed per transwell in a […]. The transwell printing surface contained a polytetrafluoroethylene (PTFE) membrane coated with equimolar mixture of types I and III collagen (bovine) with pores 3 μm in size. Epidermal cell paste containing a mixture of 100% primary neonatal human epidermal keratinocytes (HEKn) was then printed on top of the dermal bio-ink. Cell paste was measured post print at 87.1% viable by trypan exclusion assay. Cell numbers in the deposited epidermal layer was estimated at 60,000 cells by cell counting on a Cell-O-Meter. Immediately following the print, constructs were placed at 4° C. for 10 minutes. Cold media was then added to the outer well of the transwell in a volume of 3 ml. The media used for subsequent growth and maintenance of the skin tissue was a 50:50 ratio of HDFa:HEKn media. The initial volume added was sufficient to submerge the structure. All subsequent media changes used warmed media (37° C.) added to the outer well of the transwell and not to the inner basket. Media was changed 48 hours later and reduced to a volume of 1.5 ml per well to bring the structure to an air-liquid interface (ALI). Media and subsequently changed 48 hours after that (day 4) at a volume of 1.5 ml. On day 5, media was changed and further reduced to 1 ml per well and subsequently changed daily. On day 10, skin tissues were subject to a skin irritation test method using 1% Triton X 100. 1% Triton X-100™ is a known irritant and reference chemical currently used in other 3D skin models. Methods were based on OECD guidelines 439 and 431 for applying human skin models to in vitro skin irritation or corrosion, respectively. On day 10, conditioned media was saved (designated time=0) and 1 ml of fresh media was added to the outer well of the transwell. The printed skin tissue was then treated with 20 μl of PBS as a negative control or with 20 μl of 1% Triton X-100™ as a positive control and known irritant. Test substances were pipetted manually to the apical surface of the tissue. Triton X-100™ was diluted to a 1% aqueous solution in deionized water and sterile filtered through a […] filter before use. Samples were incubated for 30 minutes at 37° C. followed by 30 minutes at room temperature for a total of 60 minutes. Media was saved (designated time=1 hour). Samples were then washed extensively by PBS rinsing. Transwells were then placed in a new 6-well plate with fresh media (1 ml) added to the outer well then placed back into 37° C. overnight. The media was then changed at 24 hours and at 48 hours post treatment. Total media collected included time points=−48, 0, 1, 24, and 48 hours. IL-1α production (R&D Systems) was analyzed in a colorimetric assays per manufacturer's protocol. Media was analyzed for lactate dehydrogenase as a marker for cytotoxicity. IL-1α production was assessed as a complementary endpoint to classic cytotoxicity testing to improve predictability of irritants. Keratinocytes normally produce and release inflammatory cytokine IL-1α in response to chemical or physical stress. At 48 hours post treatment (day 12), tissues were either lysed for RNA extraction and subsequent qPCR analysis, or tested for viability by alamar blue assay then rinsed in PBS and fixed with 2% PFA for histological analysis. Alamar blue (Life Technologies) was added per manufacturer's instructions to media and incubated with tissue constructs (1 ml) at 37° C. for 3 hours. […]

[5] = tested on: bioprinted full thickness skin tissue; experiment: Skin irritation test, IL-1α production in media, colorimetric assay, 1 hour exposure (Example 4); conditions: 1% for 1 hour
Excerpt: (§2) Bio-ink was generated by a cellular mixture of 100% primary adult human dermal fibroblasts (HDFa) in 8% gelatin (Novogel® 2.0) at a concentration of 100 million cells per milliliter. The cell: gelatin ratio was altered to reduce the cellular density of the dermal sheet to better mimic dermal tissue in native skin. Three-dimensional bio-ink constructs were printed by continuous deposition using the Novogen Bioprinter® platform in a 4 mm×4 mm×0.5 mm base to create a dermal structure resembling a sheet. One tissue construct was printed per transwell in a […]. The transwell printing surface contained a polytetrafluoroethylene (PTFE) membrane coated with equimolar mixture of types I and III collagen (bovine) with pores 3 μm in size. Epidermal cell paste containing a mixture of 100% primary neonatal human epidermal keratinocytes (HEKn) was then printed on top of the dermal bio-ink. Cell paste was measured post print at 87.1% viable by trypan exclusion assay. Cell numbers in the deposited epidermal layer was estimated at 60,000 cells by cell counting on a Cell-O-Meter. Immediately following the print, constructs were placed at 4° C. for 10 minutes. Cold media was then added to the outer well of the transwell in a volume of 3 ml. The media used for subsequent growth and maintenance of the skin tissue was a 50:50 ratio of HDFa:HEKn media. The initial volume added was sufficient to submerge the structure. All subsequent media changes used warmed media (37° C.) added to the outer well of the transwell and not to the inner basket. Media was changed 48 hours later and reduced to a volume of 1.5 ml per well to bring the structure to an air-liquid interface (ALI). Media and subsequently changed 48 hours after that (day 4) at a volume of 1.5 ml. […] IL-1α production (R&D Systems) was analyzed in a colorimetric assays per manufacturer's protocol. Media was analyzed for lactate dehydrogenase as a marker for cytotoxicity. IL-1α production was assessed as a complementary endpoint to classic cytotoxicity testing to improve predictability of irritants. […]

[6] = tested on: bioprinted full thickness skin tissue; experiment: Skin irritation test, viability by alamar blue assay, 1 hour exposure (Example 4); conditions: 1% for 1 hour; 48 hours post treatment (day 12)
Excerpt: as §2, with “Cell-O-Meter.” for “Cell-O-Meter. Immediately following the print, constructs were placed at 4° C. for 10 minutes. Cold media was then added to the outer well of the transwell in a volume of 3 ml. The media used for subsequent growth and maintenance of the skin tissue was a 50:50 ratio of HDFa:HEKn media. The initial volume added was sufficient to submerge the structure. All subsequent media changes used warmed media (37° C.) added to the outer well of the transwell and not to the inner basket. Media was changed 48 hours later and reduced to a volume of 1.5 ml per well to bring the structure to an air-liquid interface (ALI). Media and subsequently changed 48 hours after that (day 4) at a volume of 1.5 ml.”

[7] = tested on: bioprinted full thickness skin tissue; experiment: Skin irritation test, qPCR gene expression analysis (Example 4); conditions: 1% for 1 hour
Excerpt: Bio-ink was generated by a cellular mixture of 100% primary adult human dermal fibroblasts (HDFa) in 8% gelatin (Novogel® 2.0) at a concentration of 100 million cells per milliliter. The cell: gelatin ratio was altered to reduce the cellular density of the dermal sheet to better mimic dermal tissue in native skin. Three-dimensional bio-ink constructs were printed by continuous deposition using the Novogen Bioprinter® platform in a 4 mm×4 mm×0.5 mm base to create a dermal structure resembling a sheet. One tissue construct was printed per transwell in a […]. The transwell printing surface contained a polytetrafluoroethylene (PTFE) membrane coated with equimolar mixture of types I and III collagen (bovine) with pores 3 μm in size. Epidermal cell paste containing a mixture of 100% primary neonatal human epidermal keratinocytes (HEKn) was then printed on top of the dermal bio-ink. Cell paste was measured post print at 87.1% viable by trypan exclusion assay. Cell numbers in the deposited epidermal layer was estimated at 60,000 cells by cell counting on a Cell-O-Meter. Immediately following the print, constructs were placed at 4° C. for 10 minutes. Cold media was then added to the outer well of the transwell in a volume of 3 ml. The media used for subsequent growth and maintenance of the skin tissue was a 50:50 ratio of HDFa:HEKn media. The initial volume added was sufficient to submerge the structure. All subsequent media changes used warmed media (37° C.) added to the outer well of the transwell and not to the inner basket. Media was changed 48 hours later and reduced to a volume of 1.5 ml per well to bring the structure to an air-liquid interface (ALI). Media and subsequently changed 48 hours after that (day 4) at a volume of 1.5 ml. On day 5, media was changed and further reduced to 1 ml per well and subsequently changed daily. On day 10, skin tissues were subject to a skin irritation test method using 1% Triton X 100. 1% Triton X-100™ is a known irritant and reference chemical currently used in other 3D skin models. Methods were based on OECD guidelines 439 and 431 for applying human skin models to in vitro skin irritation or corrosion, respectively. On day 10, conditioned media was saved (designated time=0) and 1 ml of fresh media was added to the outer well of the transwell. The printed skin tissue was then treated with 20 μl of PBS as a negative control or with 20 μl of 1% Triton X-100™ as a positive control and known irritant. […] IL-1α production (R&D Systems) was analyzed in a colorimetric assays per manufacturer's protocol. Media was analyzed for lactate dehydrogenase as a marker for cytotoxicity. IL-1α production was assessed as a complementary endpoint to classic cytotoxicity testing to improve predictability of irritants. […]

[8] = tested on: bioprinted full thickness skin tissue; experiment: Skin irritation test, lactate dehydrogenase (LDH) activity in media, 1 hour exposure (Example 4); conditions: 1% Triton X 100 for 1 hour, apical; at 1 hour, 24 hours and 48 hours post treatment
Excerpt: as §2, with “Cell-O-Meter.” for “Cell-O-Meter. Immediately following the print, constructs were placed at 4° C. for 10 minutes. Cold media was then added to the outer well of the transwell in a volume of 3 ml. The media used for subsequent growth and maintenance of the skin tissue was a 50:50 ratio of HDFa:HEKn media. The initial volume added was sufficient to submerge the structure. All subsequent media changes used warmed media (37° C.) added to the outer well of the transwell and not to the inner basket. Media was changed 48 hours later and reduced to a volume of 1.5 ml per well to bring the structure to an air-liquid interface (ALI). Media and subsequently changed 48 hours after that (day 4) at a volume of 1.5 ml.”

CCCCCCCCCCCCOS(=O)(=O)[O-].[Na+] [SDS] was tested, and the “irritant strength under these testing conditions” value [1] was “much stronger irritant”, the “viable compared to the PBS control (alamar blue)” value [1] was 2.45% and the “LDH activity higher than PBS” value [2] was “about 1.7 fold”. The IL-1a production [3] was “induced” and the “IL-1a production, response compared between the two irritants” value [3] was “much stronger response”.
Triton X-100 was tested, and the “irritancy to bioprinted skin as suggested by histology” value [4] was “irritant”, the “CK5 positive basal keratinocyte layer” value ([4]; 48 hours post treatment) was “fragmented” and the “Collagen 3 staining compared to the PBS control” value ([4]; 48 hours post treatment) was “reduction in dermal fibroblast function”. For the same compound, the “apoptosis by TUNEL staining in the dermal layer” value ([4]; 48 hours post treatment) was “increase in apoptosis”, the “histological analysis by H&E” value ([4]; 48 hours post treatment) was “separation of the epidermal and dermal layers” and the “proliferation by PCNA staining” value ([4]; 48 hours post treatment, dermal fibroblasts and basal layer) was “reduction in proliferation”. The “viable compared to the PBS control (alamar blue)” value ([1]; 15 minute exposure, 5% SDS or 1% Triton X, 42 hours post treatment (day 15)) was 68.75%, the IL-1α levels ([5]; 24 hours post treatment) was “remained high” and the IL-1α levels ([5]; 48 hours post treatment) was “returned to baseline”. The “IL-1α activity in comparison to PBS control” value ([5]; greatest difference observed 1 hour post treatment) was “increased”, the “reduction in viability as compared to the PBS control” value [6] was 80% and the “CK1 and CK10 gene expression” value ([7]; 48 hours post exposure) was “reduced”. For the same compound, the “collagen production of types 1, 3, and 4 collagen (gene expression)” value ([7]; 48 hours post exposure) was “reduced”, the “expression of both epidermal and dermal markers” value ([7]; 48 hours post exposure) was “dramatically reduces” and the “IL1a gene expression increase in comparison to the PBS control” value ([7]; 48 hours post treatment) was “about 3 fold”. For the same compound, the “LDH activity higher than PBS” value ([2]; 15 minute exposure, 5% SDS or 1% Triton X, 42 hours post exposure) was “about 1.4 fold”, the IL-1a production ([3]; 15 minute exposure, 5% SDS or 1% Triton X) was “induced” and the “induction in LDH activity compared to PBS control” value [8] was “roughly 2 fold”.
